Read-outs that look alike come from different tables or passages of the source. Ends that are not written are not given here.
How the values were obtained:
[1] = test system: human red blood cells (HRBCs); assay type: cell-based
Procedure: (§1) Chemicals. […] (Prague, Czech Republic), and Caslo ApS (Kongens Lyngby, Denmark). […] The bacterial stock was stored at -80°C.
Hemolysis assay. Hemolytic toxicity of the peptides was evaluated from their ability to lyse the fresh human red blood cells (HRBCs) collected from the University Hospital (Brno, Czech Republic). To obtain the erythrocyte pellets, the blood samples were centrifuged twice at 700×g and subsequently, once at 1000×g, each for 8 min. at 4 °C, which was followed by thorough washing with PBS. Resuspension of the pellets was done in PBS to obtain 0.5% (vol/vol) RBC suspension. In a well plate with 96 V-shaped bottom wells, the peptides were added in a dilution series from 0.1 to 50 µM concentration. Subsequently, HRBC suspension was added in each well. Negative control wells contained only PBS and HRBC suspension without any peptide (i.e., 0% lysis), and positive control wells included 5 µM melittin in the HRBC suspension. After incubation for 1 h at 37 °C, the well plates were centrifuged at 1000×g for 10 min. at 4 °C. Subsequently, the supernatant was collected in a flat-bottomed well plate and the optical density of the released hemoglobin was measured for each well at 415 nm wavelength. The calculated absorbances from the wells were then normalized against the averaged absorbances of the positive and the negative control wells. EC50 value was calculated from the normalized absorbances indicating 50% hemolysis of HRBCs. Experiments were performed in triplicates with three independent blood samples.

Calcein leakage assay = assay type: biochemical; details: for Extent of leakage (in percentage) at increasing peptide-to-lipid ratio (mol/mol) 1:20 / Extent of leakage (in percentage) at increasing peptide-to-lipid ratio (mol/mol) 1:50 / Extent of leakage (in percentage) at increasing peptide-to-lipid ratio (mol/mol) 1:100 / Extent of leakage (in percentage) at increasing peptide-to-lipid ratio (mol/mol) 1:10: calcein leakage, POPC:POPG (1:1 mol/mol) LUVs; for Extent of leakage (in percentage) at increasing peptide-to-lipid ratio (mol/mol) 1:20: peptide-to-lipid ratio 1:20 (mol/mol); for Extent of leakage (in percentage) at increasing peptide-to-lipid ratio (mol/mol) 1:50: peptide-to-lipid ratio 1:50 (mol/mol); for Extent of leakage (in percentage) at increasing peptide-to-lipid ratio (mol/mol) 1:100: peptide-to-lipid ratio 1:100 (mol/mol); for Extent of leakage (in percentage) at increasing peptide-to-lipid ratio (mol/mol) 1:10: peptide-to-lipid ratio 1:10 (mol/mol)
Procedure: as §1
Calcein leakage assay. Pore-forming activity of the peptides was tested by their ability to leak the self-quenching fluorescent dye calcein entrapped within POPC:POPG (1:1 mol/mol) large unilamellar vesicles (LUVs). After mixing DiD to the lipid mixture (in the ratio 1:500 mol/mol), a thin lipid film was created by evaporating of the chloroform, traces of which were removed by desiccating overnight. The lipid film was then dissolved in calcein buffer, followed by vigorous vortexing. The lipid suspension was subsequently subjected to 10 freeze-thaw cycles. To obtain uniform LUVs, the sample was passed 50 times back and forth through an extruder stacked with 100 nm pore size polycarbonate membrane filter. Afterwards, the untrapped calcein was removed on a HiTrap Desalting Column (with Sephadex G-25 Superfine resin) by washing with PBS buffer. The concentration of the lipid suspension was then adjusted to 0.02 mM. The concentration of the peptide solution was 0.1 mM. The inventors monitored the peptide-induced release of calcein from LUVs by the increase in fluorescence intensity after adding increasing amounts of peptides to the LUVs under constant stirring at 25 °C. The investigated range of peptide/lipid molecular ratio was from 1:100 to 1:10. The excitation and emission wavelengths were set to 495 nm and 520 nm, respectively. Maximum fluorescence intensity was obtained by disrupting all the vesicles in the end by adding 10% Triton X-100. Experiments were performed in triplicates with independently prepared lipid vesicles.

[2] = test system: Gram-negative Escherichia coli TOP10 strain; assay type: cell-based; details: for Antibacterial activity (MIC in µM) E. coli TOP10: broth microdilution assay; for MIC against E. coli: 24 h at 37 °C, dilution series 50 to 0.1 µM
Procedure: as §1
(§2) Broth microdilution assay. Antimicrobial activity of the peptides was investigated against Gram-negative Escherichia coli TOP10 strain and Gram-positive Staphylococcus carnosus CCM 4838T using broth microdilution assay, based on which the inventors determined the bacterial minimum inhibition concentration (MIC). After cross streaking with bacteria, the petri dishes (with MHA) were incubated for 24 h at 37 °C. Overnight grown cultures were then sub-cultured for 4-6 h at 37 °C in test tubes containing MHB. The sub-cultured solutions were subsequently diluted to a standard concentration of 10^6 colony forming units (CFU) per mL. Cell counts were determined by measuring the optical density at 600 nm. In a flat-bottomed 96 well plate, the inventors prepared a dilution series for the peptides and for the reference antibiotic ampicillin from 50 to 0.1 µM concentration, which was then inoculated with bacteria and incubated for 24 h at 37 °C. Growth control wells were free from peptides or ampicillin to show the viability of the bacteria, and sterility control wells were free from bacterial inoculation to verify the sterility of the medium. The bacterial growth was visually evaluated based on the turbidity. MIC was determined as the lowest concentrated well where no visible bacterial growth was observed. To test the bacteriostatic or bacteriocidal activity of the peptides, 50 µl solution from the highest concentrated well (i.e., 50 µM) was transferred to a test tube containing 4 mL sterile MHB and incubated for 24 h at 37 °C under constant stirring. Streaking of the same solution was done on MHA containing petri dishes and incubated for 24 h at 37 °C to confirm the morphology of the colonies grown. Experiments were performed in triplicates.

[3] = test system: Gram-positive Staphylococcus carnosus CCM 4838T; assay type: cell-based; details: for Antibacterial activity (MIC in µM) S. carnosus: CCM 4838
Procedure: as §1, §2

[4] = hemolysis assay, HRBCs, read-out: Toxicity (EC50 in µM) HRBCs

Substance	Extent of leakage (in percentage) at increasing peptide-to-lipid ratio (mol/mol) 1:20 (Calcein leakage assay)	Extent of leakage (in percentage) at increasing peptide-to-lipid ratio (mol/mol) 1:50 (Calcein leakage assay)	Extent of leakage (in percentage) at increasing peptide-to-lipid ratio (mol/mol) 1:100 (Calcein leakage assay)	Antibacterial activity (MIC in µM) E. coli TOP10 [2]	Antibacterial activity (MIC in µM) S. carnosus [3]	EC50 [1, 4]	Extent of leakage (in percentage) at increasing peptide-to-lipid ratio (mol/mol) 1:10 (Calcein leakage assay)	other results
NQKKLQNILNKLFKFIDDLINQLQNIKKQN [KDFA9]	102.0 ± 1.4 percentage	92.0 ± 0.3 percentage	62.6 ± 5.2 percentage	> 50 µM	> 50 µM	–	–	EC50 [1]: > 50 µM; calcein / vesicle leakage, pore-forming ability (in words) (Calcein leakage assay; POPC:POPG (1:1) LUVs): retained
KKKKLKKILKKLFQFINQLENQLQEIKQNK-NH2 [KEFA2i+9-NH2]	–	–	–	0.8 µM	0.8 µM	> 50 µM	–	–
KKKKLRRILRRLFQFINQLDNQLQDIKQNK-NH2 [RDFA2i+9-NH2-Kter]	–	100.7 ± 1.0 percentage	76.0 ± 3.3 percentage	0.2 µM	0.4 µM	49 µM	–	antimicrobial activity against S. carnosus (in words) [3]: more effective against S. carnosus
NQRRLRRILNQLFQFINQLDNQLQDIRQNR [RDFA2i]	Aggregated peptides and no leakage	Aggregated peptides and no leakage	Aggregated peptides and no leakage	–	–	–	Aggregated peptides and no leakage	–
H-KKKKVKKILKKLIQLIDQLDKDLQDIKKKK-NH2 [KD16+9-NH2]	93.1 ± 0.7 percentage	83.0 ± 1.5 percentage	58.8 ± 4.8 percentage	–	–	–	99.1 ± 2.5 percentage	EC50 [1]: > 50 µM; calcein / vesicle leakage, pore-forming ability (in words) (Calcein leakage assay; POPC:POPG (1:1) LUVs): resulted in vesicle leakage
KKKKLKKILKKLFQFINQLDNQLQDFKQNK [KDFA2i+8(I26F)]	–	–	–	0.4 µM	0.8 µM	> 50 µM	–	–
NQRRLRRILRRLWQWINQLIDDLDDIRRQN [RDWC21]	Aggregated peptides and no leakage	Aggregated peptides and no leakage	Aggregated peptides and no leakage	–	–	–	Aggregated peptides and no leakage	–
KKKKLKKILKKLWQWINQLDNQLQDIKQNK-NH2 [KDWA2i+9-NH2]	–	–	–	0.4 µM	0.8 µM	> 50 µM	–	–
NQRRLRRILNQLFQFINQLDNQLQDIRRQN [RDFA2]	102.9 ± 0.9 percentage	97.4 ± 4.5 percentage	80.2 ± 8.2 percentage	> 50 µM	–	–	–	EC50 [1]: > 50 µM
NQKKLRRILRRLFQFIDQLDNDLQDIKKQN [RDFC16Kter]	102.2 ± 0.5 percentage	85.3 ± 4.3 percentage	64.5 ± 6.1 percentage	50 µM	–	–	–	EC50 [1]: > 50 µM; MIC against E. coli [2]: 50 µM
NQRRLRRILNQLWQWINQLDNQLQDIRRQN [RDWA2]	Aggregated peptides and no leakage	Aggregated peptides and no leakage	Aggregated peptides and no leakage	–	–	–	Aggregated peptides and no leakage	–
H-HHHHLKKILKKLFQFINQLDNQLQDIHHHH-OH [KDFA2i+2-Hter]	–	–	102.5 ± 1.2 percentage	–	> 50 µM	–	–	extent of calcein leakage at peptide-to-lipid (P:L) ratio 1:100 (Calcein leakage assay; POPC:POPG (1:1) LUVs): 100%; antimicrobial activity against E. coli (in words) [2]: did not show antibacterial activity; antimicrobial activity against S. carnosus (in words) [3]: did not show antibacterial activity
NQRRLQNILRRLFQFIDQLINDLQNIRRQN [RDFA5]	Aggregated peptides and no leakage	Aggregated peptides and no leakage	Aggregated peptides and no leakage	–	–	–	Aggregated peptides and no leakage	–
NQKKLKKILNQLFQFINQLDNQLQDIKKQN [KDFA2]	–	100.2 ± 0.2 percentage	82.8 ± 1.5 percentage	50 µM	–	–	–	EC50 [1]: > 50 µM; MIC against E. coli [2]: 50 µM
NQRRLRRILRRLFQFIDQLDNDLQDIRRQN [RDFC16]	Aggregated peptides and no leakage	Aggregated peptides and no leakage	Aggregated peptides and no leakage	–	–	–	Aggregated peptides and no leakage	–
KKKKLKKILKKLFQFINQLDNQLQDIKQNK [KDFA2i+8]	–	–	–	0.2 µM	0.4 µM	> 50 µM	–	–
KKKKKLKKILKKLFQFINQLDNQLQDIKKKKK [KDFA2i+12]	–	–	–	0.4 µM	0.4 µM	> 50 µM	–	–
NQRRLRRILRRLFQFINQLIDDLDDIRRQN [RDFC21]	Aggregated peptides and no leakage	Aggregated peptides and no leakage	Aggregated peptides and no leakage	–	–	–	Aggregated peptides and no leakage	–
NQRRLQNILRRLFQFINQLIDDLQNIRRQN [RDFA7]	Aggregated peptides and no leakage	Aggregated peptides and no leakage	Aggregated peptides and no leakage	–	–	–	Aggregated peptides and no leakage	–

From patent publication EP4129319A1, “PORE-FORMING ANTIMICROBIAL PEPTIDES” (priority 2021, dated 2023)
